According to PMC7766220, “Design, Synthesis and Comprehensive Investigations of Pyrrolo[3,4-d]pyridazinone-Based 1,3,4-Oxadiazole as New Class of Selective COX-2 Inhibitors” (International Journal of Molecular Sciences, 2020):

Assays:
COX-2 = molecular target: T1, COX-2 (Homo sapiens, UniProt P35354); assay: colorimetric COX peroxidase assay, […] nm (Cayman […]); format: biochemical; conditions: read-out: Cyclooxygenase Inhibition Assay IC50 [μM] / COX-2
T1 construct: gene PTGS2; docking used 4M11
T1 sequence (P35354 18-604): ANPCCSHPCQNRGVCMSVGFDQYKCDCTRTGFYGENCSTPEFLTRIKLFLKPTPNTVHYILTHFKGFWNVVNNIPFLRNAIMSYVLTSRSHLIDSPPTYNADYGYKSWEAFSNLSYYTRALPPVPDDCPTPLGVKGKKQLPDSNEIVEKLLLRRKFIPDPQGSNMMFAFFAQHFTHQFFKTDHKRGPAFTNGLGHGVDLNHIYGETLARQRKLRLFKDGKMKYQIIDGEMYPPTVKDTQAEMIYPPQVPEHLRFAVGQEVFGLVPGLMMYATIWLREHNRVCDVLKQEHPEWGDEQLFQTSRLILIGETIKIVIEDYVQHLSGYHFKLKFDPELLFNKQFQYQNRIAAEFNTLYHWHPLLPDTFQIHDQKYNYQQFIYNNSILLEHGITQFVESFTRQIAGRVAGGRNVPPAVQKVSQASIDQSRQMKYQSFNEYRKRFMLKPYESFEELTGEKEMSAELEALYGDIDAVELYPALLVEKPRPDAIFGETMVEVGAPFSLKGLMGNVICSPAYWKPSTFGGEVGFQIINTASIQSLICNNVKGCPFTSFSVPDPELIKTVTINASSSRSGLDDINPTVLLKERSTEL

[1] = molecular target: T2, Bovine Serum Albumin (BSA) (Bos taurus, UniProt P02769); assay: intrinsic fluorescence quenching, excitation […] nm; format: binding; conditions: 294 K, pH 7.4, no site marker, double-log
T2 construct: gene ALB
T2 sequence (P02769 25-607): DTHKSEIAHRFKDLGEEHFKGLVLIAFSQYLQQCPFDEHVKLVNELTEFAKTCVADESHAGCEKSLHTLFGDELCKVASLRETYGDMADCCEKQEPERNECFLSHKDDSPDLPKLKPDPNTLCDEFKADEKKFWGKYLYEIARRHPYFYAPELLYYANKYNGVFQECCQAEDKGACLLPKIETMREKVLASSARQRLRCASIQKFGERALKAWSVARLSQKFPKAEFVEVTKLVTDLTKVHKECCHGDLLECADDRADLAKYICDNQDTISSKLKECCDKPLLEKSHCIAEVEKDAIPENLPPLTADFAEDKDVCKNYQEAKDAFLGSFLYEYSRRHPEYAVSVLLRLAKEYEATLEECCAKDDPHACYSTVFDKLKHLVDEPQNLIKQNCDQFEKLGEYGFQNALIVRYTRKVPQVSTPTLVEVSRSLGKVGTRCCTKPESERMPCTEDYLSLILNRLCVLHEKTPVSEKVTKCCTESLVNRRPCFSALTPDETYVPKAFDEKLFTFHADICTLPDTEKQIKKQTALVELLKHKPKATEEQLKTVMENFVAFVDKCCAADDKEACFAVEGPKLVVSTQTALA

[2] = unreliable (Table 5 rows of 5a and 5b are identical, likely a copying error)

IC50 (COX-2) [µM]	Binding / Kb × 10^4 [dm^3.mol^-1] [1, 2]	Binding / Kb × 10^4 [dm^3.mol^-1] [1]	SMILES
659	12.30 × 10^4 dm^3·mol^−1	–	Cc1c2c(OCc3nnc(SCC(=O)N4CCN(c5ccccc5)CC4)o3)nn(C)c(=O)c2c(C)n1-c1ccccc1 [5a, 3,5,7-trimethyl-1-[[2-[2-oxo-2-(4-phenylpiperazin-1-yl)ethyl]sulfanyl-1,3,4-oxadiazol-5-yl]methoxy]-6-phenyl-pyrrolo[3,4-d]pyridazin-4-one]
257	12.30 × 10^4 dm^3·mol^−1	–	CCCCn1c(C)c2c(OCc3nnc(SCC(=O)N4CCN(c5ccccc5)CC4)o3)nn(C)c(=O)c2c1C [5b, 6-butyl-3,5,7-trimethyl-1-[[2-[2-oxo-2-(4-phenylpiperazin-1-yl)ethyl]sulfanyl-1,3,4-oxadiazol-5-yl]methoxy]pyrrolo[3,4-d]pyridazin-4-one]
160	–	7.24 × 10^4 dm^3·mol^−1	Cc1c2c(OCc3nnc(SCC(=O)N4CCN(c5ncccn5)CC4)o3)nn(C)c(=O)c2c(C)n1-c1ccccc1 [6a, 3,5,7-trimethyl-1-[[2-[2-oxo-2-(4-pyrimidin-2-ylpiperazin-1-yl)ethyl]sulfanyl-1,3,4-oxadiazol-5-yl]methoxy]-6-phenyl-pyrrolo[3,4-d]pyridazin-4-one]
371	–	8.51 × 10^4 dm^3·mol^−1	CCCCn1c(C)c2c(OCc3nnc(SCC(=O)N4CCN(c5ncccn5)CC4)o3)nn(C)c(=O)c2c1C [6b, 6-butyl-3,5,7-trimethyl-1-[[2-[2-oxo-2-(4-pyrimidin-2-ylpiperazin-1-yl)ethyl]sulfanyl-1,3,4-oxadiazol-5-yl]methoxy]pyrrolo[3,4-d]pyridazin-4-one]
